The values that follow come from patent US10611760B2, “Therapeutic compounds as inhibitors of the orexin-1 receptor” (C4X Discovery Limited, priority 2014, dated 2020).

pIC50: −log10 of the molar value.

Assay type in all cases: cell-based
Experiment [1] has as its target T1, hOX1R (Homo sapiens, UniProt O43613).
T1 sequence (O43613 1-425): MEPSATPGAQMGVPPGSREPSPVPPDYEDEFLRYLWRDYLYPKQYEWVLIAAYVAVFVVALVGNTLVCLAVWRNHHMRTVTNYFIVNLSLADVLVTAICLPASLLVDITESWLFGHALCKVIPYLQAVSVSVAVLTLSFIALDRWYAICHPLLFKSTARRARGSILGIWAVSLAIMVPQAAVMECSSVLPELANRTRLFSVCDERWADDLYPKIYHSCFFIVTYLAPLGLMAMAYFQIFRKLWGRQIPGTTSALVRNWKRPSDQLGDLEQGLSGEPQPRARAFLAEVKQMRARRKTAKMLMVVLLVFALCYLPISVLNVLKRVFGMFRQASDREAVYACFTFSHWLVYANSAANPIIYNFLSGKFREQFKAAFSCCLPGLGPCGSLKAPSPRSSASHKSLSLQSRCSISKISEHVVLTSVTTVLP
As to the kind of experiment: Whole cell FLIPR functional assay, comparison with reference compounds, hOX1R. The following applies: for Selectivity: orexin-1 receptor over orexin-2 receptor; for IC50: read-out: hOX1R pIC50 (converted). Also noted: expressed in transfected cells. From the text:
(§1) As indicated herein, by whole cell FLIPR functional assay data and by comparison with reference compounds not claimed within the present invention, the compounds of the present invention provide increased selectivity for the orexin-1 receptor over the orexin-2 receptor. The increased selectivity for the orexin-1 receptor over the orexin-2 receptor in the whole cell FLIPR functional assay provides enhanced predictive value for determining in vivo efficacy. Increasing the functional selectivity for the orexin-1 receptor reduces the potential for dual receptor antagonism in vivo. Such greater functional selectivity may provide benefits over other orexin receptor antagonists that are known in the art.

A further experiment deals with T2, hOX2R (Homo sapiens, UniProt O43614).
T2 sequence (O43614 1-444): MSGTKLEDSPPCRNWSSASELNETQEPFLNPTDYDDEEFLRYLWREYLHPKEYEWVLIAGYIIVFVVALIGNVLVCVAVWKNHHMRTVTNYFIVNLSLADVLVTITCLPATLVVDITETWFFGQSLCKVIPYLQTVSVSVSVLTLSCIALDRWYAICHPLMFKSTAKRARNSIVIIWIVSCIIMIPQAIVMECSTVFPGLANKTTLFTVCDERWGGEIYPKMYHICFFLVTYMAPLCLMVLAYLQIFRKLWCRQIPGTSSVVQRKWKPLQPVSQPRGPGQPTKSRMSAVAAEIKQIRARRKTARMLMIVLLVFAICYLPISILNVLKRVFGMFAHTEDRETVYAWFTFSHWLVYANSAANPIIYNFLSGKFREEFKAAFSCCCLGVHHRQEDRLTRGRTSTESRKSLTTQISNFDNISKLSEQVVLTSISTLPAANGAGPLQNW
As to the kind of experiment: Whole cell FLIPR functional assay, comparison with reference compounds, hOX2R. Also noted: expressed in transfected cells. The following applies: read-out: hOX2R pIC50 (converted).
Source text: as §1

The target in a further experiment is T3, orexin-1 (Homo sapiens, UniProt O43613).
T3 construct: expressed in transfected cells
T3 sequence (O43613 1-425): T1 sequence (O43613 1-425)
Nature of the experiment: Antagonism against orexin-1 in the aforementioned (above identified) intracellular calcium assays. An excerpt:
Antagonism against orexin receptors has been measured for each example compound using at least one of the following procedures. […] These values may fluctuate depending on the daily cellular assay performance. Fluctuations of this kind are known to those skilled in the art. […] Data highlighted with an asterix (*) is derived from a single experiment, otherwise all data reported is an average of at least two independant replicate experiments. […]

Experiment [2] concerns the target T1, hOX1R. Nature of the experiment: Intracellular calcium measurements using division-arrested cells, OX1. The following applies: agonist orexin A at 2×EC50, * = single experiment, otherwise average of at least two, read-out: pIC50 OX1 (converted). Put shortly: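 Division-arrested cells expressing human OX1 or OX2 were seeded for 16 h, then loaded with Calcium 5 dye plus probenecid for 1 h at 37 °C. Compounds in HEPES-buffered HBSS with 0.1% BSA, pH 7.4, top final concentration 10 μM, were added 10 min before the FlexStation calcium read.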
A general note: A change in cytosolic calcium serves as a functional read-out for many receptors and channels.

Regarding `CC(C)[C@H](CNc1ccc(Cl)cn1)N(C)C(=O)c1ccccc1-c1ccccc1`, on hOX1R [1], the Selectivity result is reported as “Selectivity 1.9x” and the IC50 is 1000 nM. Also, the IC50 on hOX2R was 2000 nM.
The like results for `CN(CCNc1ccc(Cl)cn1)C(=O)c1ccccc1-c1ccccc1` were, in that order, “Selectivity 1.1x”, 63.1 nM and 79.4 nM.
Take `CC[C@@H](CNc1ccc(Cl)cn1)NC(=O)c1cc(C)ccc1N1CCOCC1` [(S)—N-(1-((5-chloropyridin-2-yl)amino)butan-2-yl)-5-methyl-2-morpholinobenzamide]: the pIC50 at orexin-1 was less than 5.00.
Turning to `CC[C@@H](CNc1ccc(Cl)cn1)N(C)C(=O)c1nc(C)ncc1-n1nccn1` [(S)—N-(1-((5-chloropyridin-2-yl)amino)butan-2-yl)-N,2-dimethyl-5-(2H-1,2,3-triazol-2-yl)pyrimidine-4-carboxamide], the negative logarithm of the IC50 (pIC50) at orexin-1 is less than 5.00.
For the compound `CC[C@@H](CNc1ccc(Cl)cn1)N(C)C(=O)c1cc(C)ccc1N1CCN(C)CC1` [(S)—N-(1-((5-chloropyridin-2-yl)amino)butan-2-yl)-N,5-dimethyl-2-(4-methylpiperazin-1-yl)benzamide], the pIC50 at orexin-1 is less than 5.00.
Same read-out and setting: under `CC[C@@H](CNc1ccc(Cl)cn1)N(C)C(=O)c1cc(C(F)(F)F)ccc1-n1ccnn1` [(S)—N-(1-((5-chloropyridin-2-yl)amino)butan-2-yl)-N-methyl-2-(1H-1,2,3-triazol-1-yl)-5-(trifluoromethyl)benzamide] stands 5.31.
With `CC[C@@H](CNC(=O)c1ccccn1)N(C)C(=O)c1cc(Cl)ccc1-n1nccn1` [(S)—N-(2-(5-chloro-N-methyl-2-(2H-1,2,3-triazol-2-yl)benzamido)butyl)picolinamide], at orexin-1, the pIC50 is less than 5.00.
With `CC(C)[C@@H](CNc1ccc(Cl)cn1)N(C)C(=O)c1ccccc1-c1ccccc1` [Example 10, (S)—N-(1-((5-chloropyridin-2-yl)amino)-3-methylbutan-2-yl)-N-methyl-[1,1′-biphenyl]-2-carboxamide], the figures for the IC50 on hOX1R [2], at hOX1R [1] and at hOX2R were 79.4 nM, 79.4 nM and 6310 nM, respectively. At hOX1R [1], the Selectivity entry is recorded as “Selectivity 80x”.
Consider `Cc1ccc(-n2nccn2)c(C(=O)N(C)C(CNc2ccc(Cl)cn2)C2COC2)c1` (stereo not shown) [N-(2-((5-chloropyridin-2-yl)amino)-1-(oxetan-3-yl)ethyl)-N,5-dimethyl-2-(2H-1,2,3-triazol-2-yl)benzamide], for which the pIC50 at orexin-1 is less than 5.00.

By pIC50 is commonly meant −log10 of the IC50, conventionally taken in molar units.
